Assay results published in US20250381179A1, “CHROMAN-BASED COMPOUNDS FOR TREATING CANCER” (priority 2024, published 2025).
Read-outs that look alike come from different tables or passages of the source.

Assays:
[1] = Phase 1 study: plasma pharmacokinetics in patients; format: in vivo, human; settings: human, plasma, po; for AUC(0-t): read-out: AUC0-24 h of (1-h); for Tmax: read-out: Tmax* of (1-h); for Cmax: read-out: Cmax of (1-h)
Description: All patients received compound (1-g) orally. The time of day for administration of compound (1-g) was consistent. Compound (1-g) was taken whole with liquid(s) and with food in the morning. The patient avoided taking other medications at the same time as compound (1-g). When possible, the patient took other medications in the evening or separated by a minimum of 4 hours following compound (1-g) dosing. On scheduled PK collection days (Cycle 1 Day 1, Cycle 1 Day 15, and Day 1 of Cycles 2, 3, 4, and 6) patients were instructed to wait until they arrive at the study center to take their study drug when told. If a patient missed a dose of compound (1-g), the patient was required to take the dose as soon as possible, but not less than 12 hours before the next dose is due. If vomiting occurred after taking the study treatment, the patient was instructed not to retake the dose and record the dose recorded as taken in the dosing diary, noting that the patient vomited and marking the time of vomiting. Patients were instructed to take the next scheduled dose of compound (1-g).
The plasma PK parameters (including AUC(0-∞), AUC(0-τ), Cmax, tmax, and T1/2) of compound (1-g) following oral administration was assessed by analysis of blood samples. During treatment, PK blood samples were taken at approximately the following time points: • Cycle 1 Day 1, and Day 15: pre-dose; at 1, 2, and 4-hour post-dose (±5 min); 6 and 8-hour post-dose (±10 min); and 24 hours post-dose (+1 hour); • Cycle 2, 3, 4, and 6 Day 1: pre-dose only.
Plasma concentrations of compound (1-g) were used to calculate the PK parameters. These parameters were listed by individual patient and summarized by descriptive statistics (means, medians, ranges, standard deviations, and coefficients of variation as appropriate) by cohort.
Compound (1-g) was administered orally to patients once a day at 100, 200, 300 mg, 400 mg, and 600 mg doses.

MCF7 cells = assay: MCF7 cell growth inhibition (luminescence-based proliferation assay, CellTiter-Glo)
Description: MCF7 cells were obtained from American Type Culture Collection (ATCC). For cell growth assay, MCF7 cells were seeded in 96-well plates at 2000 cells/well in 90 μL of DMEM medium containing 10% fetal bovine serum, and then incubated at 37° C. with 5% CO2 in air overnight. The following day, compound (1-g) and compound (1-h) were administered to the cells by using 1000× compound stock solution prepared in DMSO at concentrations of 3, 1, 0.33, 0.11, 0.037, 0.012, 0.0041, 0.0013, and 0.00046 mM. 1000x compound stock solution was first diluted in culturing medium to 10×, then 10 μL compound medium was added to each well in the cell plates. After administration of compound (1-g) and compound (1-h), the cells were then incubated at 37° C. for 6 days. Upon completion, the plates were equilibrated at room temperature for approximately 10 minutes. 100 μL of CellTiter-Glo® Reagent (Promega) was added to each well. The plates were then incubated at room temperature for 10 minutes and luminescence was recorded by EnSpire plate reader (PerkinElmer).

[2] = 100 mg, patient plasma after oral (1-g) 100 mg QD, C1D15, n = 2, mean
[3] = 200 mg, patient plasma after oral (1-g) 200 mg QD, C1D1, n = 12, mean
[4] = 200 mg, patient plasma after oral (1-g) 200 mg QD, C1D15, n = 12, mean
[5] = 300 mg, patient plasma after oral (1-g) 300 mg QD, C1D1, n = 10, mean
[6] = 300 mg, patient plasma after oral (1-g) 300 mg QD, C1D15, n = 10, mean
[7] = 400 mg, patient plasma after oral (1-g) 400 mg QD, C1D1, n = 6, mean
[8] = 400 mg, patient plasma after oral (1-g) 400 mg QD, C1D15, n = 5, mean
[9] = 600 mg, patient plasma after oral (1-g) 600 mg QD, C1D1, n = 4, mean
[10] = 600 mg, patient plasma after oral (1-g) 600 mg QD, C1D15, n = 4, mean

AUC(0-t) ([1]; 100 mg, patient plasma after oral (1-g) 100 mg QD, C1D1, n = 1, mean): 332 ng·h/mL
Tmax ([1]; 100 mg, patient plasma after oral (1-g) 100 mg QD, C1D15, n = 2, *median value): 12 h
AUC(0-t) [1, 2]: 7080 ng·h/mL
Cmax [1, 2]: 326 ng/mL
AUC(0-t) [1, 3]: 1030 ng·h/mL
Cmax [1, 3]: 68.8 ng/mL
Tmax ([1]; 200 mg, patient plasma after oral (1-g) 200 mg QD, C1D15, n = 12, *median value): 7.17 h
AUC(0-t) [1, 4]: 9540 ng·h/mL
Cmax [1, 4]: 428 ng/mL
AUC(0-t) [1, 5]: 1610 ng·h/mL
Cmax [1, 5]: 112 ng/mL
Tmax ([1]; 300 mg, patient plasma after oral (1-g) 300 mg QD, C1D15, n = 10, *median value): 5.8 h
AUC(0-t) [1, 6]: 15400 ng·h/mL
Cmax [1, 6]: 680 ng/mL
AUC(0-t) [1, 7]: 1740 ng·h/mL
Cmax [1, 7]: 118 ng/mL
Tmax ([1]; 400 mg, patient plasma after oral (1-g) 400 mg QD, C1D15, n = 5, *median value): 4.8 h
AUC(0-t) [1, 8]: 17900 ng·h/mL
Cmax [1, 8]: 820 ng/mL
AUC(0-t) [1, 9]: 2470 ng·h/mL
Cmax [1, 9]: 170 ng/mL
Tmax ([1]; 600 mg, patient plasma after oral (1-g) 600 mg QD, C1D15, n = 4, *median value): 10 h
AUC(0-t) [1, 10]: 18700 ng·h/mL
Cmax [1, 10]: 828 ng/mL
GI50 (MCF7 cells; Homo sapiens, 144 h, MCF7 cells, 6 days, CellTiter-Glo): 9 nM
Structure (SMILES): O=C1CC[C@@H](N2Cc3cc(N4CCN(CC5CCN(c6ccc([C@@H]7c8ccc(O)cc8OC[C@@H]7c7ccccc7)cc6F)CC5)CC4)ccc3C2=O)C(=O)N1 [compound (1-h), (R)-3-(5-(4-((1-(2-fluoro-4-((3S,4R)-7-hydroxy-3-phenylchroman-4-yl)phenyl)piperidin-4-yl)methyl)piperazin-1-yl)-1-oxoisoindolin-2-yl)piperidine-2,6-dione]
reduced the tumor growth by (FIG. 3A/3B) (MCF7 cells; MCF7 cell proliferation assay): about 62%
